The results in this text go back to patent publication US20180117052A1, “COMBINATION THERAPIES FOR TREATING CANCERS” (Gilead Scienes, Inc., priority 2015, published 2018).

The test has as its system CD5+/CD19+ cells of PBMCs from primary chronic lymphocytic leukemia (CLL) patients. Put plainly: Human CLL apoptosis assay (AnnexinV+ cells by flow cytometry). It is filed as cell-based. To be noted: no HS-5 co-culture. The procedure:
Peripheral blood mononuclear cells (PBMCs) were isolated from primary chronic lymphocytic leukemia (CLL) patients and cultured for 3-5 hours in Lymphocyte Growth Medium (LGM, RPMI 1640, 1 mM Sodium Pyruvate, 10 mM HEPES, pH 7.4, 100 U/mL Penicillin/100 μg/mL Streptomycin, 55 μM β-Mercaptoethanl, 2 mM GlutaMAX, and 10% FBS) at 37° C. with 5% CO2. Cells were then centrifuged at room temperature for 10 minutes and resuspended in an appropriate volume of LGM for plating (maximum cell density=3.12×10^6/ml). Final assay wells were set up in U-bottom 96-well tissue culture plates with HS-5 co-culture (plates were coated with 3×10^4 HS-5 cells in 100 μl overnight at 37° C. prior to the assay) or no co-culture.
Cell suspensions (80 μL, 2.5×10^5-9.4×10^4) were added to the plate and incubated for 1 hour prior to stimulation with αIgM/αIgG (7.8 μg/well) and αCD40 (4 μg/well). Cells were incubated with compounds for about 66 hours at 37° C. After incubation, the cells were transferred to deeper plates and washed once with 500 μL of 1× PBS^+/+. Cells were resuspended in Invitrogen's aqua Live/Dead reagent according to manufacturer's directions and incubated 30 minutes on ice. Aqua Live/Dead was quenched with an equal volume of PBS^+/+ with 4% FBS (FACS buffer). Cells were centrifuged and labeled with αCD5-PE, αCD19-BV421 and AnnexinV-APC in a total volume of 85 μL and incubated 30 minutes on ice. After labeling, cells were rinsed twice in FACS buffer and then fixed with BD Fixation buffer for 30 minutes on ice. Cells were rinsed twice with FACS buffer and analyzed.
For the apoptosis analysis, flow cytometric sampling of 5000-20,000 total events were collected on a BD FACS Canto II instrument using a high throughput screen (HTS) autosampler for analysis of apoptosis. CD5^+/CD19^+ cells were identified and subsequently gated for AnnexinV^+/LiveDead and AnnexinV^+/LiveDead^+ populations.
Flow cytometric data were extracted to a flow cytometry standard (fcs) file. Average percentages of AnnexinV^+ cells were determined for the positive control and negative wells (no compound). The percentage of AnnexinV^+ cells represented the percentage or levels of apoptosis. Similar results were obtained for CLL cells with HS-5 co-culture.
(In flow cytometry, cells or beads pass a laser one at a time.)

Regarding `c1cn2cc(-c3ccc4cn[nH]c4c3)nc(Nc3ccc(N4CCOCC4)cc3)c2n1` [Compound A1, 6-(1H-indazol-6-yl)-N-(4-morpholinophenyl)imidazo[1,2-a]pyrazin-8-amine], the “Percentage of the AnnexinV^+ cells” value was 12% (Sample 1, 30 nM Compound A1, 0 nM Compound B1); 12% (Sample 1, 100 nM Compound A1, 0 nM Compound B1); 16% (Sample 1, 300 nM Compound A1, 0 nM Compound B1); 9% (Sample 2, 30 nM Compound A1, 0 nM Compound B1); 12% (Sample 2, 100 nM Compound A1, 0 nM Compound B1); 20% (Sample 2, 300 nM Compound A1, 0 nM Compound B1). The “Percentage of the AnnexinV^+ cells” value is, setting by setting: (Sample 3, 30 nM Compound A1, 0 nM Compound B1) 13%; (Sample 3, 100 nM Compound A1, 0 nM Compound B1) 15%; (Sample 3, 300 nM Compound A1, 0 nM Compound B1) 18%.

For `CC1(C)CCC(CN2CCN(c3ccc(C(=O)NS(=O)(=O)c4ccc(NCC5CCOCC5)c([N+](=O)[O-])c4)c(Oc4cnc5[nH]ccc5c4)c3)CC2)=C(c2ccc(Cl)cc2)C1` [Compound B1, (4-(4-{[2-(4-chlorophenyl)-4,4-dimethylcyclohex-1-en-1-yl]methyl}piperazin-1-yl)-N-({3-nitro-4-[(tetrahydro-2H-pyran-4-yl-methyl)amino]phenyl}sulfonyl)-2-(1H-pyrrolo[2,3-b]pyridin-5-yl-oxy)benzamide)], the “Percentage of the AnnexinV^+ cells” value (Sample 1, 0 nM Compound A1, 0.8 nM Compound B1) is on record as 13%; the “Percentage of the AnnexinV^+ cells” value (Sample 1, 0 nM Compound A1, 1.6 nM Compound B1) was 15%; the “Percentage of the AnnexinV^+ cells” value (Sample 1, 0 nM Compound A1, 3.1 nM Compound B1) is 15%; the “Percentage of the AnnexinV^+ cells” value (Sample 1, 0 nM Compound A1, 6.3 nM Compound B1) came out at 16%; the “Percentage of the AnnexinV^+ cells” value (Sample 1, 0 nM Compound A1, 12.5 nM Compound B1) stood at 19%; the “Percentage of the AnnexinV^+ cells” value (Sample 1, 0 nM Compound A1, 25 nM Compound B1) is recorded as 24%. The “Percentage of the AnnexinV^+ cells” value (Sample 1, 0 nM Compound A1, 50 nM Compound B1) is 31%; the “Percentage of the AnnexinV^+ cells” value (Sample 1, 0 nM Compound A1, 100 nM Compound B1) came out at 36%; the “Percentage of the AnnexinV^+ cells” value (Sample 1, 0 nM Compound A1, 200 nM Compound B1) amounted to 46%; the “Percentage of the AnnexinV^+ cells” value (Sample 2, 0 nM Compound A1, 0.8 nM Compound B1) is recorded as 10%; the “Percentage of the AnnexinV^+ cells” value (Sample 2, 0 nM Compound A1, 1.6 nM Compound B1) was 18%; the “Percentage of the AnnexinV^+ cells” value (Sample 2, 0 nM Compound A1, 3.1 nM Compound B1) is on record as 35%. Further, the “Percentage of the AnnexinV^+ cells” value reads like this: (Sample 2, 0 nM Compound A1, 6.3 nM Compound B1) 55%; (Sample 2, 0 nM Compound A1, 12.5 nM Compound B1) 76%; (Sample 2, 0 nM Compound A1, 25 nM Compound B1) 89%; (Sample 2, 0 nM Compound A1, 50 nM Compound B1) 93%; (Sample 2, 0 nM Compound A1, 100 nM Compound B1) 95%; (Sample 2, 0 nM Compound A1, 200 nM Compound B1) 97%. The “Percentage of the AnnexinV^+ cells” value (Sample 3, 0 nM Compound A1, 0.8 nM Compound B1) was determined as 16%; the “Percentage of the AnnexinV^+ cells” value (Sample 3, 0 nM Compound A1, 1.6 nM Compound B1) is 21%; the “Percentage of the AnnexinV^+ cells” value (Sample 3, 0 nM Compound A1, 3.1 nM Compound B1) was 33%; the “Percentage of the AnnexinV^+ cells” value (Sample 3, 0 nM Compound A1, 6.3 nM Compound B1) is on record as 50%; the “Percentage of the AnnexinV^+ cells” value (Sample 3, 0 nM Compound A1, 12.5 nM Compound B1) is recorded as 69%; the “Percentage of the AnnexinV^+ cells” value (Sample 3, 0 nM Compound A1, 25 nM Compound B1) worked out at 89%. The “Percentage of the AnnexinV^+ cells” value is listed as 97% (Sample 3, 0 nM Compound A1, 50 nM Compound B1); 99% (Sample 3, 0 nM Compound A1, 100 nM Compound B1); 100% (Sample 3, 0 nM Compound A1, 200 nM Compound B1).
